Experimental data from US20100267561A1, “HERBICIDAL PYRIDAZINONE DERIVATIVES” (priority 2007, published 2010).
Like-named read-outs stand apart in the source and are kept apart here.

What was measured:
Type in all cases: in vivo
[1] = tested on: wheat (Triticum aestivum); assay: Test B pre-/postemergence plant response; conditions: Preemergence
Excerpt: (§1) Seeds of plant species selected from blackgrass (Alopecurus myosuroides), downy bromegrass (Bromus tectorum), green foxtail (Setaria viridis), Italian ryegrass (Lolium multiflorum), wheat (Triticum aestivum), wild oat (Avena fatua), catchweed bedstraw (Galium aparine), bermudagrass (Cynodon dactylon), surinam grass (Brachiaria decumbens), cocklebur (Xanthium strumarium), corn (Zea mays), large crabgrass (Digitaria sanguinalis), woolly cupgrass (Eriochloa villosa), giant foxtail (Setaria faberii), goosegrass (Eleusine indica), johnsongrass (Sorghum halepense), kochia (Kochia scoparia), lambsquarters (Chenopodium album), morningglory (Ipomoea coccinea), eastern black (E.B.) nightshade (Solanum ptycanthum), yellow nutsedge (Cyperus esculentus), pigweed (Amaranthus retroflexus), common ragweed (Ambrosia elation), Russian thistle (Salsola iberica), soybean (Glycine max), common (oilseed) sunflower (Helianthus annuus), and velvetleaf (Abutilon theophrasti) were planted and treated preemergence with test chemicals formulated in a non-phytotoxic solvent mixture which included a surfactant.
(§2) At the same time, plants selected from these crop and weed species and also winter barley (Hordeum vulgare), canarygrass (Phalaris minor), chickweed (Stellaria media) and windgrass (Apera spica-venti) were treated with postemergence applications of some of the test chemicals formulated in the same manner. Plants ranged in height from 2 to 18 cm (1- to 4-leaf stage) for postemergence treatments.
(§3) Plant species in the flooded paddy test consisted of rice (Oryza sativa), umbrella sedge (Cyperus difformis), ducksalad (Heteranthera limosa) and barnyardgrass (Echinochloa crus-galli) grown to the 2-leaf stage for testing. At time of treatment, test pots were flooded to 3 cm above the soil surface, treated by application of test compounds directly to the paddy water, and then maintained at that water depth for the duration of the test. Treated plants and controls were maintained in a greenhouse for 13 to 15 days, after which time all species were compared to controls and visually evaluated. Plant response ratings, summarized in Table B, are based on a scale of 0 to 100 where 0 is no effect and 100 is complete control. A dash (-) response means no test result.

[2] = tested on: green foxtail (Setaria viridis); assay: Test B pre-/postemergence plant response; conditions: Preemergence
Excerpt: as §1, §2, §3

[3] = tested on: johnsongrass (Sorghum halepense); assay: Test B pre-/postemergence plant response; conditions: Preemergence
Excerpt: as §1, §2, §3

[4] = tested on: giant foxtail (Setaria faberi); assay: Test A pre-/postemergence plant response; conditions: Setaria faberi, 240 h, read-out: Plant response rating, Foxtail, Giant; for pest or weed control at 125 g/ha: 125 g ai/ha; for pest or weed control at 500 g/ha: 500 g ai/ha
How it was run: (§4)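 Scores reflect visual plant injury relative to untreated controls on a 0–100 scale, recorded approximately 10 days after simultaneous preemergence soil spraying and postemergence spraying of one- to two-leaf seedlings grown in loam–sand.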

[5] = tested on: morningglory (Ipomoea coccinea); assay: Test A pre-/postemergence plant response
How it was run: as §4

[6] = tested on: pigweed (Amaranthus retroflexus); assay: Test A pre-/postemergence plant response; conditions: Amaranthus retroflexus, 240 h, read-out: Plant response rating, Pigweed; for pest or weed control at 125 g/ha: 125 g ai/ha; for pest or weed control at 500 g/ha: 500 g ai/ha
How it was run: as §4

corn (Zea mays) = assay: Test A pre-/postemergence plant response; conditions: Zea mays, 240 h; for Corn plant response rating (crop injury, 0 = no effect, 100 = complete kill) at 125 g/ha: 125 g ai/ha; for Corn plant response rating (crop injury, 0 = no effect, 100 = complete kill) at 500 g/ha: 500 g ai/ha
How it was run: as §4

[7] = tested on: wheat (Triticum aestivum); assay: Test A pre-/postemergence plant response; conditions: Triticum aestivum, 240 h, read-out: Plant response rating, Wheat; for plant injury at 125 g/ha: 125 g ai/ha; for plant injury at 500 g/ha: 500 g ai/ha
How it was run: as §4

[8] = tested on: barnyardgrass (Echinochloa crus-galli); assay: Test A pre-/postemergence plant response; conditions: Echinochloa crus-galli, 240 h, read-out: Plant response rating, Barnyardgrass; for pest or weed control at 125 g/ha: 125 g ai/ha; for pest or weed control at 500 g/ha: 500 g ai/ha
How it was run: as §4

[9] = tested on: velvetleaf (Abutilon theophrasti); assay: Test A pre-/postemergence plant response
How it was run: as §4

[10] = tested on: large crabgrass (Digitaria sanguinalis); assay: Test A pre-/postemergence plant response; conditions: Digitaria sanguinalis, 240 h, read-out: Plant response rating, Crabgrass, Large; for pest or weed control at 125 g/ha: 125 g ai/ha; for pest or weed control at 500 g/ha: 500 g ai/ha
How it was run: as §4

[11] = post-emergence, Postemergence, 0 to 100 scale, 0 no effect, 100 complete control
[12] = pre-emergence, Preemergence, 0 to 100 scale (0 no effect, 100 complete control)
[13] = Postemergence, 125 g ai/ha, 0 to 100 scale, 0 no effect, 100 complete control
[14] = Postemergence, 500 g ai/ha, 0 to 100 scale, 0 no effect, 100 complete control
[15] = Preemergence, 125 g ai/ha, 0 to 100 scale (0 no effect, 100 complete control)
[16] = Preemergence, 500 g ai/ha, 0 to 100 scale (0 no effect, 100 complete control)

Cc1cn(-c2ccc(Cl)cc2)nc1-c1c(O)cnn(C)c1=O [Compound 30, 4-[1-(4-chlorophenyl)-4-methyl-1H-pyrazol-3-yl]-5-hydroxy-2-methyl-3(2H)-pyridazinone]
40%: plant injury at 125 g/ha [7, 11] | plant injury at 125 g/ha [7, 12]
70%: Corn plant response rating (crop injury, 0 = no effect, 100 = complete kill) at 500 g/ha (corn (Zea mays); [11]) | Corn plant response rating (crop injury, 0 = no effect, 100 = complete kill) at 500 g/ha (corn (Zea mays); [12])
100%: pest or weed control at 31 g/ha ([2]; Setaria viridis, pre-emergence, 31 g ai/ha, 0 to 100 scale, 0 no effect, 100 complete control, read-out: Plant response rating, Foxtail, Green) | pest or weed control at 62 g/ha ([2]; Setaria viridis, pre-emergence, 62 g ai/ha, scale 0 to 100, read-out: Plant response rating, Foxtail, Green) | pest or weed control at 125 g/ha [4, 12] | pest or weed control at 500 g/ha [4, 12] | pest or weed control at 125 g/ha [8, 12] | pest or weed control at 500 g/ha [8, 12] | pest or weed control at 125 g/ha [10, 12] | pest or weed control at 500 g/ha [10, 12]
80%: pest or weed control at 125 g/ha [4, 11]
0%: plant injury at 16 g/ha ([1]; Triticum aestivum, pre-emergence, 16 g ai/ha, scale 0 to 100 (0 no effect, 100 complete control), read-out: Plant response rating, Wheat) | plant injury at 31 g/ha ([1]; Triticum aestivum, pre-emergence, 31 g ai/ha, 0 to 100 scale, 0 no effect, 100 complete control, read-out: Plant response rating, Wheat) | pest or weed control at 16 g/ha ([2]; Setaria viridis, pre-emergence, 16 g ai/ha, scale 0 to 100 (0 no effect, 100 complete control), read-out: Plant response rating, Foxtail, Green) | pest or weed control at 125 g/ha [6, 11] | pest or weed control at 500 g/ha [6, 11] | pest or weed control at 125 g/ha [6, 12] | pest or weed control at 500 g/ha [6, 12] | Corn plant response rating (crop injury, 0 = no effect, 100 = complete kill) at 125 g/ha (corn (Zea mays); [11]) | Corn plant response rating (crop injury, 0 = no effect, 100 = complete kill) at 125 g/ha (corn (Zea mays); [12])
98%: pest or weed control at 62 g/ha ([3]; Sorghum halepense, pre-emergence, 62 g ai/ha, scale 0 to 100, read-out: Plant response rating, Johnsongrass)
10%: plant injury at 62 g/ha ([1]; Triticum aestivum, pre-emergence, 62 g ai/ha, scale 0 to 100, read-out: Plant response rating, Wheat)
50%: pest or weed control at 16 g/ha ([3]; Sorghum halepense, pre-emergence, 16 g ai/ha, scale 0 to 100 (0 no effect, 100 complete control), read-out: Plant response rating, Johnsongrass) | pest or weed control at 31 g/ha ([3]; Sorghum halepense, pre-emergence, 31 g ai/ha, 0 to 100 scale, 0 no effect, 100 complete control, read-out: Plant response rating, Johnsongrass) | plant injury at 500 g/ha [7, 11] | pest or weed control at 125 g/ha [8, 11]
60%: pest or weed control at 125 g/ha [10, 11]
90%: pest or weed control at 500 g/ha [4, 11] | plant injury at 500 g/ha [7, 12] | pest or weed control at 500 g/ha [8, 11] | pest or weed control at 500 g/ha [10, 11]
0: Wheat plant response rating ([1]; 8 g ai/ha, scale 0 to 100) | Foxtail, Green plant response rating ([2]; 8 g ai/ha, scale 0 to 100) | Johnsongrass plant response rating ([3]; 8 g ai/ha, scale 0 to 100) | Plant response rating, Morningglory [5, 13] | Plant response rating, Morningglory [5, 14] | Plant response rating, Morningglory [5, 15] | Plant response rating, Morningglory [5, 16] | Plant response rating, Velvetleaf [9, 13] | Plant response rating, Velvetleaf [9, 14] | Plant response rating, Velvetleaf [9, 15] | Plant response rating, Velvetleaf [9, 16]
